# Experimental data taken from patent US8153593B2, “Transglutaminase inhibitors and methods of use thereof” (The Board of Trustees of the Leland Stanford Junior …, priority 2003, dated 2012).
# How the values were obtained:
# tumor associated TG2 = biological target: T1, tumor associated TG2 (Mus musculus, UniProt P21981); experiment: Intracranial DBT tumor associated TG2 activity after dosing; type: in vivo, mice
# T1 construct: from tissue; host or cells: intracranial DBT glioblastoma tumours from dosed mice
# T1 sequence (P21981 1-686): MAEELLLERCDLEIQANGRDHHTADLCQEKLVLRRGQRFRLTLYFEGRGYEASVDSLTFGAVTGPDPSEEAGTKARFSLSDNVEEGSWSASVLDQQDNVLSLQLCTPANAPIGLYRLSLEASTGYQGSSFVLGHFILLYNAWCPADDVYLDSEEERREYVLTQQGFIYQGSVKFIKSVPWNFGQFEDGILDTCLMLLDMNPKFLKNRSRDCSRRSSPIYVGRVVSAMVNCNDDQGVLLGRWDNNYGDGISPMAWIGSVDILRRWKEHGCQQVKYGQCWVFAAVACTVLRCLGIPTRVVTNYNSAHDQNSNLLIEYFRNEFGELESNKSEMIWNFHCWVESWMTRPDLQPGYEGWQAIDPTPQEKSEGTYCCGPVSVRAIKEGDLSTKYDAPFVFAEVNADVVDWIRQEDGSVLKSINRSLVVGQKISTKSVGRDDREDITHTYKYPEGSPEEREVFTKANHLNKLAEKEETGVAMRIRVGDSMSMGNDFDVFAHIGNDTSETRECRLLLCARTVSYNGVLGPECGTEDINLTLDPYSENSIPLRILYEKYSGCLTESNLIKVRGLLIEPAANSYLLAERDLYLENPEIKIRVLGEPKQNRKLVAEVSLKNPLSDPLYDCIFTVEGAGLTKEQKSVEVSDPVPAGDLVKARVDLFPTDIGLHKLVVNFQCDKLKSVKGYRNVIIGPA
# Experimental: (§1) To test whether therapeutic doses of KCC009 can modulate TG2 activity associated with intracranial glioblastomas, DBT tumors were injected intracranially in mice. As judged by MRI, the mice consistently established intracranial tumors after 7-10 days following injections, which, if untreated, caused death by 2-3 weeks. In an initial dose-finding experiment, cohorts of mice were administered 4 daily doses of vehicle or KCC009 (12.5 mg/kg, 25 mg/kg and 50 mg/kg) starting on day 11 after intra-cranial injections. Twenty-four hours later, the mice were sacrificed and tumors analyzed. […] Based on these findings a dose of 35 mg/kg was used for subsequent experiments in mice harboring intracranial DBT tumors.
# As summarized in Table 4, KCC009 treatment led to significant suppression of TG2 activity after 15 min, whereas enzyme activity recovers fully by 24 h. Both uninhibited and inhibited activity levels are consistent with similar measurements in the small intestinal mucosa (data not shown).
# DBT cells = experiment: Clonogenic radiosensitizer assay; type: cell-based, murine
# Experimental: FIG. 2: KCC009 as a radiosensitizer. Cultured DBT cells were treated with radiation alone (3.2 Gy) (left) or radiation plus 0.5 mM KCC009 (right), and plated on soft agar to evaluate cell viability.
# In addition to evaluating the chemosensitizing potential of KCC009, this compound's potential as a radiosensitizer was also evaluated. For this clonogenic assays were used to measure colony formation after a single radiation treatment. The studies were performed in triplicate with varying doses of XRT and number of cells plated. […] A representative photo of a clonogenic assay plate treated with X-ray alone compared with a plate pre-treated with 0.5 mM KCC009 plus X-ray is shown in FIG. 2.
# HCT-116 = experiment: Combination with epothilone C in colon cancer cells; type: cell-based, human; details: KCC009 in the 1-100 μM range
# [1] = test system: IOMM-Lee meningioma cells; experiment: Meningioma cell sensitization to radiation, TG2-fibronectin Western blot; type: cell-based; details: 0.5 mM KCC009
# Experimental: FIG. 4: Top left: control IOMM meningioma cells; Top right: IOMM cells exposed to 20 Gy radiation; Bottom left: IOMM cells exposed to 0.5 mM KCC009 and 20 Gy radiation.
# FIG. 5: Western blot analysis of lysates from IOMM cells treated with KCC009 and/or BCNU. Lysates were immunoprecipitated with anti-fibronectin antibodies, and the Western blots were probed with anti-TG2 antibodies. Lanes (left to right): Control, KCC009 only, BCNU only, KCC009+BCNU. KCC009 and BCNU were used at concentrations of 0.5 mM and 6.25 μM, respectively. Disappearance of TG2 from lanes treated with KCC009 illustrates loss of association of TG2 with the extracellular matrix.
# To verify the therapeutic utility of KCC009 against meningiomas, IOMM-Lee meningioma cells were treated with 20 Gy of radiation with and without KCC009. […] Similar data was also obtained when KCC009 was used in combination with BCNU.
# B16 mouse melanoma cells = experiment: Melanoma cell treatment with KCC009 and/or BCNU; type: cell-based; details: 24 h, 1 mM KCC009 alone or with 6.25 μM BCNU
# Experimental: FIG. 6A-6D: Photomicrographs of B16 (mouse melanoma cells) after 24 h treatment with KCC009 and/or BCNU. A) Control; B) 1 mM KCC009 only; C) 6.25 μM BCNU only; D) KCC009+BCNU combination.
# Activity of KCC009 against melanomas: Melanomas are cancers of the neural crest-derived cells that provide pigmentation to skin and other tissues. No current treatments substantially enhance patient survival once metastasis has occurred.
# glioblastoma cells = experiment: In vitro treatment of glioblastoma cells; type: cell-based
# intracranial DBT tumors = experiment: Intracranial DBT glioblastoma dose-finding and chemosensitizer studies; type: in vivo, mice
# Experimental: as §1
# To evaluate the activity of KCC009 as a chemosensitizer, mice harboring DBT tumors were treated either with 10 mg/kg BCNU alone (2 mice) or BCNU+35 mg/kg KCC009 (3 mice). As before, 4 daily drug doses were administered intraperitoneally starting on day 11. Tumors were harvested for immuno-histological analysis 24 h after the last dose.
# [2] = Preliminary pharmacokinetic and toxicity studies; details: mice
compound,measurement,setting,value
O=C(N[C@@H](Cc1ccc(O)cc1)C(=O)NCC1CC(Br)=NO1)OCc1ccccc1 (some centres unmarked) [Compound 59],TG2 activity-BCNU + KCC009,"tumor associated TG2; BCNU + 50 mg/kg KCC009, 15 min after last of four daily doses",1.2 ± 0.3 (n = 4) nmol/h/mg protein
same,TG2 activity-BCNU + KCC009,"tumor associated TG2; BCNU + 50 mg/kg KCC009, 24 h after last of four daily doses",2.1 ± 0.2 (n = 3) nmol/h/mg protein
same,enhancement of cell death in response to radiation,"DBT cells; 0.5 mM KCC009, 3.2 Gy X-ray",two orders of magnitude
same,effect of KCC009 alone on cell viability,"DBT cells; at corresponding concentrations, no radiation",does not affect cell viability
same,reduction of GI50 for epothilone C,HCT-116,> 2 fold
same,sensitization to radiation,[1]; 20 Gy radiation,dramatically sensitized meningioma cells to radiation
same,association between TG2 and fibronectin,"[1]; fibronectin immunoprecipitate, anti-TG2 Western blot",loss of association between TG2 and fibronectin
same,sensitivity of melanoma cells,B16 mouse melanoma cells,sensitive
same,apoptosis,glioblastoma cells,promoted apoptosis
same,changes in levels of survival proteins,glioblastoma cells,"markedly decreased levels of phosphorylated Akt, survivin, phosphorylated Bad, and phosphorylated glycogen synthetase kinase 3β; and increased levels of the pro-apoptotic BH3-only protein, Bim"
same,sensitivity to chemotherapeutic agents,glioblastoma cells,enhanced sensitivity to chemotherapeutic agents
same,fibronectin staining of tumors,"intracranial DBT tumors; 10 mg/kg BCNU + 35 mg/kg KCC009 i.p., 4 daily doses, versus BCNU alone",decrease in fibronectin staining overall and an apparent dramatic decrease in the extracellular matrix
same,gross tumor size and brain swelling,"intracranial DBT tumors; 12.5 mg/kg or 25 mg/kg, 4 daily doses from day 11",smaller tumors and reduced brain swelling
same,gross tumor,"intracranial DBT tumors; 50 mg/kg, 4 daily doses from day 11, one mouse",did not have any gross tumor
same,oral bioavailability,[2],reasonable oral bioavailability
same,serum half-life,[2],short
same,toxicity,[2],low toxicity
